7 compounds from patent US12391697B2, “Condensed bi-heterocycles as inhibiting agents for Bruton's tyrosine kinase” (BIOGEN MA INC., priority 2019, dated 2025) can be followed below.

Test [1] has as its system CD69 expression on CD19+ B cells in whole blood. Nature of the test: In Vitro Whole Blood CD69 Assay. Type of test: cell-based, Human. The settings on record: Homo sapiens, B-cell, human heparinized whole blood, anti-human IgD stimulation, percentage of CD19+ B cells expressing CD69; read-out: IC50. As to the method:
In Vitro Whole Blood CD69 Assay
Human heparinized venous blood from health donors was aliquoted into 96-well plate and “spiked” with serial dilutions of formula I compounds in DMSO or with DMSO without drug. The final concentration of DMSO in all wells was 0.1%. The plate was incubated at 37° C. for 30 min. Drug-containing samples were stimulated with 0.1 μg/mL mouse anti-human IgD-dextran (1A62) or 20 μg/mL polyclonal rabbit F(ab′)2 anti-human IgD. Phosphate-buffered saline (PBS) was added to the negative control unstimulated sample and the plates were incubated overnight (18 to 22 hours) at 37° C. Cells were stained with fluorochrome-conjugated anti-CD19 and anti-CD69 antibodies. Lyse/fix solution was used to remove red blood cells by hypotonic lysis and to fix the remaining cells, which were then analyzed by flow cytometry. CD19+ B cells were gated and analyzed for CD69 expression. The percentage of B cells expressing CD69 was plotted versus the log 10 of the concentration of the drug and the best-fit curves (variable Hill slope) were generated to obtain the IC50 value.

The next test deals with BTK (Homo sapiens (Human), UniProt Q06187). Nature of the test: In Vitro BTK Kinase Assay: Btk-PolyGAT-LS Assay. The settings on record: active BTK enzyme 0.25 nM, ATP 10 μM, polyGAT 100 nM, 30 minutes. The class given is biochemical. The method in brief:
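Recombinant BTK (0.25 nM) phosphorylating 100 nM polyGAT at 10 μM ATP in Tris-HCl pH 7.5 buffer with MgCl2, DTT, Triton X-100 and casein, 30 min, then EDTA stop.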

Structures are written as SMILES. pIC50: −log10 of the molar value. Counter-ions that a name gives are not always drawn.

BTK, sequence (Q06187 whole entry): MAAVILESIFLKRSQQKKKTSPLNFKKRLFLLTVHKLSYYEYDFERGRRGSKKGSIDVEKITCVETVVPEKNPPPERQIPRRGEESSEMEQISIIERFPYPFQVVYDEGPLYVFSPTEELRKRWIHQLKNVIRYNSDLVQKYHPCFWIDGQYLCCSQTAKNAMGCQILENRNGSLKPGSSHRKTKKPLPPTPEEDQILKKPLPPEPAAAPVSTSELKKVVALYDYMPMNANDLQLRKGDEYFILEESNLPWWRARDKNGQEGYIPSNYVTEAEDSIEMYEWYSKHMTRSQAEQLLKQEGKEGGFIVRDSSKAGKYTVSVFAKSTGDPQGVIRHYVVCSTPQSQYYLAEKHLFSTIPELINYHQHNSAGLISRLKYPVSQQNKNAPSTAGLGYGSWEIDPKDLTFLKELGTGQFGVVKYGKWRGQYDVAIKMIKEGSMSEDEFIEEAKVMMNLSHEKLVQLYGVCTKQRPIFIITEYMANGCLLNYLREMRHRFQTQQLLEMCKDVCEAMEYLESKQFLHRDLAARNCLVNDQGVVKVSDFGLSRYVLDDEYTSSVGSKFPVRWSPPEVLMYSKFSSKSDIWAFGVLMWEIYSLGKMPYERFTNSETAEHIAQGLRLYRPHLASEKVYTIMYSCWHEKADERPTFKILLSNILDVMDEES

In the case of `Cc1cc(-c2ncnn3cc(-c4cnn(C)c4)cc23)ccc1[C@@H](C)NC(=O)c1nc(C(C)(C)C)no1` [Example 57, (R)-3-(tert-butyl)-N-(1-(2-methyl-4-(6-(1-methyl-1H-pyrazol-4-yl)pyrrolo[2,1-f][1,2,4]triazin-4-yl)phenyl)ethyl)-1,2,4-oxadiazole-5-carboxamide], the pIC50 was 6.00 to 7.00 in test [1] and at least 9.00 against BTK.

As to `COc1c(CNC(=O)c2nc(C(C)(C)C)no2)ccc(-c2ncnn3cc(-c4cnn(C)c4)cc23)c1F` [Example 45, 3-(tert-butyl)-N-(3-fluoro-2-methoxy-4-(6-(1-methyl-1H-pyrazol-4-yl)pyrrolo[2,1-f][1,2,4]triazin-4-yl)benzyl)-1,2,4-oxadiazole-5-carboxamide], the pIC50 in test [1] was 6.00 to 7.00; against BTK, at least 9.00.

Regarding `Cc1cc(-c2ncnn3cc(N4CCO[C@H](C)C4)cc23)ccc1CNC(=O)c1noc(C(C)(C)C)n1` (single isomer, unassigned) [Example 30], the pIC50 in test [1] was 6.00 to 7.00; at BTK, at least 9.00.

For `Cc1cc(-c2ncnn3cc(N4CCN(C5COC5)CC4)cc23)ccc1CNC(=O)c1noc(C(C)(C)C)n1` [Example 32, 5-(tert-butyl)-N-(2-methyl-4-(6-(4-(oxetan-3-yl)piperazin-1-yl)pyrrolo[2,1-f][1,2,4]triazin-4-yl)benzyl)-1,2,4-oxadiazole-3-carboxamide trifluoroacetate], the results for the pIC50 (in test [1]; at BTK) were 6.00 to 7.00 and at least 9.00, respectively.

On to `Cc1cc(-c2ncnn3cc(-c4cnn(C)c4)cc23)ccc1CNC(=O)c1noc(C2(C)CC2)n1` [Example 40, N-(2-methyl-4-(6-(1-methyl-1H-pyrazol-4-yl)pyrrolo[2,1-f][1,2,4]triazin-4-yl)benzyl)-5-(1-methylcyclopropyl)-1,2,4-oxadiazole-3-carboxamide], for which the pIC50 was 6.00 to 7.00 in test [1] and at least 9.00 against BTK.

For `Cc1cc(-c2ccnc3cc(-c4cnn(C)c4)nn23)ccc1CNC(=O)c1noc(C(C)(C)C)n1` [Example 16, 5-(tert-butyl)-N-(2-methyl-4-(2-(1-methyl-1H-pyrazol-4-yl)pyrazolo[1,5-a]pyrimidin-7-yl)benzyl)-1,2,4-oxadiazole-3-carboxamide trifluoroacetate], the results for the pIC50 (in test [1]; at BTK) were 6.00 to 7.00 and at least 9.00, respectively.

In the case of `CO[C@@H]1CCN(c2cc3c(-c4ccc(CNC(=O)c5nc(C(C)(C)C)no5)c(C)c4)ncnn3c2)C1` (single isomer, unassigned) [Example 24], the pIC50 is 6.00 to 7.00 in test [1] and at least 9.00 against BTK.
